In paper PMC8442276, “Inter-laboratory comparison of water solubility methods applied to difficult-to-test substances” (BMC Chemistry, 2021):
Values after ≈ are worked out from the molar mass of the structure shown. Like-named read-outs stand apart in the source and are kept apart here. Marks after values point to notes of the source that are not given here.

Tests used:
[1] = Water solubility by slow-stir method; type: physicochemical; conditions: for solubility: reagent grade water in sealed all-glass aspirator bottles
Method: The slow-stir water solubility method uses glass vessels, at least one liter in volume, to which reagent grade water is added. The typical bottle contains a sampling port or spigot at the bottom of the vessel and is filled to a water column height approximating that of the vessel’s tapered shoulders. Slow stir systems are depicted in Additional file 1: Figure S1. This configuration minimizes headspace but maximizes the test substance—water interface. […] The top opening of the vessels is tightly sealed to minimize volatile loss of neat test substance from the system. The excess test substance provides a supply of free product to dissolve and, in the case of volatile substances, evaporate into the headspace. The system is mixed with a minimal vortex imparting just enough energy to move the small dollop of test substance and impart a slight dimple (< 0.5 cm) below the water surface. Care is taken to mix slowly so as to avoid emulsifying the test substance. Water samples are withdrawn from the bottom sampling port of the vessel, extracted and analyzed. As necessary, specific sampling techniques for dissolved volatile organics are used including: the use of gas tight syringes, minimizing sample transfer, and reduced storage duration prior to analysis. Sampling from slow-stir systems occurs over daily or weekly intervals until analysis indicates equilibrium has been reached representing maximum water solubility. Larger test (i.e. 8–20 L) vessels are generally used when the associated analytical method requires extraction of large water sample volumes and also provide a greater surface-to-volume ratio which can be advantageous, especially for surface active compounds. For substances where the solubility is extremely low (i.e. < 10 µg/L) lengthy equilibration periods (weeks-months) may be needed.
The slow-stir water solubility method is not currently cited in existing regulatory guidelines though a number of publications describe its application to difficult-to-test liquid compounds [11–14]. In this ring test, each laboratory employed all glass aspirator bottles with sampling spigots located toward the bottom of the vessels. Water volumes ranged from 0.8 to 4 L with initial vessel headspace accounting for 5 to 20% of the entire vessel volume. n-Hexylcyclohexane loadings ranged from 0.4 to 400 mg/L. The vessels were sealed with Teflon™, polypropylene, glass or high density polyethylene screw plugs or stoppers. Water was stirred at a rate imparting little to no visible vortex and stirring rates were estimated between 80 and 250 rpm. The specific experimental parameters used by each of the participating labs in applying the slow-stir method are listed in Additional file 1: Table S2.

[2] = Water solubility by column elution (generator column) method, OECD 105; type: physicochemical
Description: The column elution method as applied in this ring test is described in several regulatory test guidelines. The typical generator column consists of two concentric glass columns. The inner, narrow column is packed with test substance. The solid test substance is typically dissolved in a volatile solvent which is then pre-loaded onto an inert support phase (e.g. glass beads, diatomaceous earth, chromatographic support material) by rotary evaporation to coat the support phase and then remove the solvent. Alternatively, some practitioners load the column directly with ca. 0.5 g of neat test substance which is retained with plugs of fused silica wool. The outer column provides temperature control (20 °C) as it is connected to a recirculating water bath. Reagent grade water is pumped through the inner column contacting the test substance column at a low flow rate (i.e. < 1 mL/min). The water eluate is collected, extracted and analyzed. Consecutive fractions are collected until the concentration of test substance in water plateaus indicating equilibrium water solubility has been reached. The experiment is then repeated at a flow rate approximately one-half that applied in the first trial to confirm that equilibrium has been reached. In this ring test, two of the five participating labs applied dodecahydrotriphenylene dissolved in solvent to an inert support phase. The solvent was evaporated and the support phase coated with the test compounds. The remaining three laboratories packed the columns with neat test substance. Across the five laboratories, the column flow for the first run ranged from 0.4 to 0.8 mL/min. The volume of each fraction collected for analysis ranged from 5 to 25 mL. Details of the experimental parameters used by each of the participating labs in applying the generator column method are listed in Additional file 1: Table S1.

Q: Which results are given for `CCCCCCC1CCCCC1` [n-Hexylcyclohexane]?
A: Mean measured water solubility, inter-laboratory mean ([1]; 20 °C, mean of n = 5 labs): 0.014 µg/mL; solubility ([1]; 20 °C, mean of n = 5 labs, read-out: Mean measured water solubility, inter-laboratory mean): 0.014 µg/mL (≈ 0.0832 µM); solubility ([1]; 20 °C, n = 5 labs, read-out: Range of measured water solubility values across labs): 0.011 to 0.016 µg/mL (≈ 0.0654 to 0.0951 µM); solubility ([1]; 20 °C, water, thermodynamic from solid, Laboratory B, second attempt, read-out: Mean measured Concentration (water solubility)): 0.012 µg/mL (≈ 0.0713 µM); solubility ([1]; 20 °C, water, thermodynamic from solid, Laboratory E, second attempt, read-out: Mean measured Concentration (water solubility)): 0.016 µg/mL (≈ 0.0951 µM); solubility ([1]; water, thermodynamic from solid, Laboratory A, read-out: Mean measured Concentration (water solubility)): 0.015 µg/mL (≈ 0.0891 µM); solubility ([1]; water, thermodynamic from solid, Laboratory B, first attempt, equilibrium not demonstrated, not included in mean, read-out: Mean measured Concentration (water solubility), first attempt): 0.0056 µg/mL (≈ 0.0333 µM); solubility ([1]; water, thermodynamic from solid, Laboratory C, read-out: Mean measured Concentration (water solubility)): 0.014 µg/mL (≈ 0.0832 µM); solubility ([1]; water, thermodynamic from solid, Laboratory D, read-out: Mean measured Concentration (water solubility)): 0.011 µg/mL (≈ 0.0654 µM); solubility ([1]; water, thermodynamic from solid, Laboratory E, first attempt, equilibrium not demonstrated, not included in mean, read-out: Mean measured Concentration (water solubility), first attempt): 0.0057 µg/mL (≈ 0.0339 µM)

Q: Which “Mean Measured Concentration (water solubility)” value (“Mean Measured Concentration” for short) ([2]; Laboratory A, column packed directly with neat solid) does the source give for `C1CCc2c(c3c(c4c2CCCC4)CCCC3)C1` [Dodecahydrotriphenylene] here?
A: 2.8^p µg/L

Q: And the “Mean Measured Concentration” value ([2]; Laboratory B, test substance on support)?
A: 3.2 µg/L

Q: And the “Mean Measured Concentration” value ([2]; Laboratory C, test substance on support)?
A: 2.1 µg/L

Q: What about the “Mean Measured Concentration” value ([2]; Laboratory D, column packed directly with neat solid) of the same compound?
A: 2.3^p µg/L

Q: And the “Mean Measured Concentration” value ([2]; Laboratory E, column packed directly with neat solid, statistical outlier, not included in mean)?
A: 0.66 µg/L

Q: What about the “Mean measured water solubility, inter-laboratory mean” value ([2]; column elution, 20 °C, mean of n = 4 labs (Lab E excluded as outlier)) of the same compound?
A: 0.0026 µg/mL

Q: And the “Range of measured water solubility values across labs” value ([2]; column elution, 20 °C, n = 4 labs)?
A: 0.0021 to 0.0032 µg/mL
